From US10011635B2, “Cyclic peptide conjugates and methods of use” (priority 2013, dated 2018)
Numbered stars: 1 amine (or outer) side, 2 acyl side, 3 side chain; on linkers, the order of the positions; unused ones are H or OH. Bridge positions count the residues as written; N and C are the ends. Square brackets hold non-standard residues; d marks the D form. Peptide text beside a SMILES is read from it. * marks the point of attachment. dProlinol(O-CH2CO) = O=C(COC[C@H]1CCCN1[*:1])[*:2]; N(2-Aminoethyl)Gly = O=C(CN(CCN[*:3])[*:1])[*:2]; Nle = CCCC[C@H](N)C(=O)O; Ms = CS(=O)(=O)*

How the values were obtained:
U266 cells = assay: In vitro cytotoxicity, PI staining and flow cytometry (U266); type: cell-based, human; conditions: 1 hour at 37° C., PI staining, flow cytometry; compared to medium alone
Protocol: (§1) The cells were incubated with the conjugates and negative and positive controls for 1 hour at 37° C. followed by propidium iodide (PI) staining and flow cytometry analysis using FSC/SSC scatter densities and fluorescence to distinguish live and dead cells.

H929 cells = assay: In vitro cytotoxicity, PI staining, flow cytometry and microscopy (H929); type: cell-based, human; conditions: 1 hour at 37° C., flow cytometry, compared to medium alone
Protocol: FSC/SSC scatter densities distinguished live cells (right population) and dead cells (left population). This was confirmed by PI staining.
as §1

5TGM1 cells = assay: 5TGM1 murine myeloma model in vivo (survival, serum IgG2b); conditions: 5TGM1 i.v. in C57BL6/KaLwRij mice; i.v. once weekly for 3 weeks; 10 mg/kg Fc-Sec-MTI-101, 10 mg/kg Fc-stop or MTI-101 0.3285 mg/kg; n=5
Protocol: One million 5TGM1 cells were injected intravenously (i.v.) in C57BL6/KaLwRij mice. Mice injected i.v. were treated once weekly for 3 weeks with 10 mg/kg Fc-Sec-MTI-101, 10 mg/kg Fc-stop, or an equal payload of MTI-101 (0.3285 mg/kg). […] Medium survival was 35 days for control and MTI-101 IV equal payload, 26 days for […] and 62 days for Fc-Sec-MTI-101 (n=5 animals per group), as shown in FIG. 18B. IgG2b levels were measured by ELISA 28 days following tumor inoculation.
This is an excellent immune competent MM model in which drug response is monitored in the confines of the bone marrow microenvironment. […] 5TGM1 cells (1×10^6 in 100 μL of PBS) were injected intravenously (i.v.) into the tail vein of 6-week old C57 BL/KaLwRij mice (Harlen, Netherlands). Tumor was allowed to engraft for 10 days prior to the initiation of drug treatment.
To quantify tumor burden, blood was collected by submandibular bleeding and mice were monitored weekly by measuring 5TGM1 secreted IgG2b (paraprotein) in the serum by ELISA (FIG. 18B). Hind limb paralysis and hunching were considered as additional surrogate markers for morbidity.

[1] = Maximum tolerated dose of MTI-101; design: species or system C57 BL/KaLwRij mice; conditions: mouse, in vivo, ip; i.p. 3× weekly for three weeks
multiple myeloma (MM) = conditions: summary statement, no test described; cited from earlier work

Q: What does the source list for `CCCC[C@@H]1NC(=O)CN(S(C)(=O)=O)CCNC(=O)[C@H](CCCCN)NC(=O)[C@H](CC(C)C)NC(=O)[C@H](CCCCN)NC(=O)[C@H](CC(C)C)NC(=O)[C@H](CCCCN)NC(=O)COC[C@H]2CCCN2C(=O)[C@H](Cc2c[nH]c3ccccc23)NC(=O)[C@H](C)NC(=O)[C@H](C(C)C)NC(=O)[C@H](C(C)C)NC1=O` [MTI-101] (Ms-[N(2-Aminoethyl)Gly][Nle]VVAW[dProlinol(O-CH2CO)]KLKLK; lactam 1-C)?
A: cytotoxicity toward U266 cells (U266 cells): clearly killed; cytotoxicity toward H929 cells (H929 cells): clearly killed; Medium survival (5TGM1 cells): 35 days; MTD [1]: 10 mg/kg; IC50 potency (multiple myeloma (MM)): near nM
